Test results: paper PMC8619593 (Pharmaceuticals, 2021)
Values after ≈ are worked out from the molar mass of the structure shown. Values joined by “and” are separate entries in the source; they are usually repeats but may differ in a detail not shown here. Equal entries are not always repeated. “Also recorded” adds a separate entry of the source. Where two headings read alike, the source gives them in different places.

Legend:
[1] = tested on: Bacillus subtilis ATCC 6633; assay: Broth microdilution MIC; conditions: ATCC6633, 24 h
[2] = tested on: Enterococcus faecalis 15376 VanA; assay: Broth microdilution MIC; conditions: 24 h
[3] = tested on: Staphylococcus epidermidis mecA; assay: Broth microdilution MIC; conditions: 24 h
[4] = tested on: Staphylococcus epidermidis ATCC 35984 biofilm; assay: Broth microdilution MIC
[5] = tested on: Staphylococcus aureus MSSA ATCC 29213; assay: Broth microdilution MIC
[6] = tested on: Enterococcus faecalis ATCC 51299 VanB; assay: Broth microdilution MIC
[7] = tested on: Enterococcus faecalis ATCC 29212; assay: Broth microdilution MIC; conditions: ATCC29212, 24 h
[8] = tested on: Staphylococcus aureus MRSA ATCC 33591; assay: Broth microdilution MIC
[9] = tested on: SARS-CoV-2; assay: Viral RNA reduction assay (ddPCR) in Vero E6 cells, MOI 0.01; conditions: for EC50: read-out: SARS-CoV-2 RNA Reduction EC50; for Therapeutic Index CC50/EC50: calculated from RNA reduction EC50 values; for SARS-CoV-2 RNA Reduction, activity at 50 µM: MOI 0.01, tested at 50 µM
[10] = in vitro; conditions: African green monkey
[11] = target: 3CLPro (Severe acute respiratory syndrome coronavirus 2, UniProt P0DTD1); assay: 3CLPro FRET-based inhibition assay; type: biochemical, SARS-CoV-2; conditions: for inhibition at 100 µM: read-out: 3CLPro inhibition; for IC50: FRET, 600 nM 3CLPro, 250 nM substrate
[12] = set-up: method as in PMID 32625627; conditions: cited from earlier work
[13] = tested on: SARS-CoV-2; assay: microbe, parasite or virus in culture; type: cell-based; conditions: Vero E6 cells, read-out: SARS-CoV-2 IFA, EC50
[14] = target: T1, Human recombinant cathepsin B (exopeptidase activity) (Homo sapiens, UniProt P07858); assay: Cathepsin B exopeptidase inhibition assay; type: biochemical
T1 construct: The Preparation of Catalytically Active Human Cathepsin B from Its Precursor Expressed in Escherichia coli; made in house; host or cells: Escherichia coli

[15] = tested on: SARS-CoV-2; assay: microbe, parasite or virus in culture; type: cell-based; conditions: Vero E6 cells, MOI 0.04, three days, XTT, read-out: SARS-CoV-2 CPE, EC50
[16] = target: Human recombinant cathepsin L (Homo sapiens, UniProt P07711); assay: Cathepsin L inhibition assay; type: biochemical
Chain of Human recombinant cathepsin L (P07711 114-333): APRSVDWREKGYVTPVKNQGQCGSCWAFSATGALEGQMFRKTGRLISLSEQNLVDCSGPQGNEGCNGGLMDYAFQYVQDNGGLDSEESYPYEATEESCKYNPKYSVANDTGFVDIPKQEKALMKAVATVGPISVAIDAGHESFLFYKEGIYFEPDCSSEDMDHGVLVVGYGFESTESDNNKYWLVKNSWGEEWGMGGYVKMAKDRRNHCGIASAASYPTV

[17] = tested on: Vero E6 cells; conditions: dilutions from 100 µM
[18] = tested on: SARS-CoV-1; conditions: read-out: IC50 for blocking SARS-CoV-1 entry; cited from earlier work
[19] = tested on: SARS-CoV-2; conditions: read-out: IC50 for blocking SARS-CoV-2 entry; cited from earlier work
[20] = tested on: SARS-CoV-2
[21] = Enterococcus faecalis, 15376VANA
[22] = Staphylococcus epidermidis, ATCC35984, 24 h
[23] = Enterococcus faecalis, ATCC51299, 24 h
[24] = Severe acute respiratory syndrome coronavirus 2, Vero C1008, 48 h
[25] = Severe acute respiratory syndrome coronavirus 2, Vero C1008, 72 h
[26] = pH 5.5, substrate Z-Phe-Arg-AMC; read-out: Cathepsin L IC50
[27] = read-out: Exopeptidase Cathepsin B IC50; pH 5.0, substrate Abz-Gly-Ile-Val-Arg-Ala-Lys(Dnp)-OH
[28] = read-out: Cathepsin L IC50; pH 5.5, substrate Z-Phe-Arg-AMC

Row | Compound | MIC [1] | MIC [2, 21] | MIC ([3]; Staphylococcus epidermidis) | MIC [4, 22] | MIC ([5]; Staphylococcus aureus, 24 h) | MIC [6, 23] | MIC [7] | MIC ([8]; Staphylococcus aureus, 24 h) | IC50 [11] | CC50 [17] | Therapeutic Index CC50/EC50 [20] | IC50 [14, 27] | IC50 [16, 28] | further results
1 | COC(=O)/C=C/C(C)=C\C=C\C(C)=C\C=C\C=C(C)\C=C\C=C(C)\C=C\C(=O)N[C@H]1C(=O)N[C@H]2C(=O)N[C@H](C(=O)N[C@H]3C(=O)N[C@H]4C(=O)N[C@H](C(=O)N[C@H](C(=O)OC)c5cc(O)cc(O)c5-c5cc4ccc5O)[C@H](O)c4ccc(cc4)Oc4cc3cc(c4O)Oc3ccc(cc3)[C@H]2O)c2cc(O)c(C)c(c2)Oc2cc1ccc2O [Compound 7] | 32 µg/mL (≈ 20.6 µM) | 256 µg/mL (≈ 165 µM) | 64 µg/mL (≈ 41.3 µM) | 64 µg/mL (≈ 41.3 µM) | 64 µg/mL (≈ 41.3 µM) | 64 µg/mL (≈ 41.3 µM) | 32 µg/mL (≈ 20.6 µM) | 64 µg/mL (≈ 41.3 µM) |  |  |  |  |  | 
2 | COC(=O)/C=C/C(C)=C\C=C\C(C)=C\C=C\C=C(C)\C=C\C=C(C)\C=C\C(=O)O [Compound 1a, Bixin, reference compound] | 512 µg/mL (≈ 1300 µM) | 512 µg/mL (≈ 1300 µM) | 512 µg/mL (≈ 1300 µM) | 512 µg/mL (≈ 1300 µM) | 512 µg/mL (≈ 1300 µM) | 512 µg/mL (≈ 1300 µM) | 512 µg/mL (≈ 1300 µM) | 512 µg/mL (≈ 1300 µM) |  |  |  |  |  | EC50 [9, 24]: 5.9 ± 1.7 µM; Therapeutic Index CC50/EC50 [9]: >17; CC50 [10]: > 100 µM; inhibition at 100 µM [11]: 56%; acceptable daily intake [12]: 6 mg/kg body weight; EC50 ([13]; Severe acute respiratory syndrome coronavirus 2, Vero C1008, 72 h, MOI 0.04, three days, dilutions from 100 µM): 28 ± 8.8 µM; IC50 ([14]; pH 5.0, substrate Abz-Gly-Ile-Val-Arg-Ala-Lys(Dnp)-OH; read-out: Exopeptidase Cathepsin B IC50): 14.6 ± 1.71 µM; EC50 [15, 25]: 14 ± 3.5 µM; IC50 [16, 26]: 41.9 ± 1.12 µM
3 | CC1=C(/C=C/C(C)=C/C=C/C(C)=C/C=C/C=C(C)/C=C/C=C(\C)C(=O)O)C(C)(C)CCC1 [Compound 1c, β-apo-8′-carotenoic acid] |  |  |  |  |  |  |  |  | 73 ± 7.1 µM |  |  |  |  | EC50 [9, 24]: 15 ± 2 µM; Therapeutic Index CC50/EC50 [9]: >6.7; melting point: 194 to 195 °C; CC50 at 3 days [10]: > 100 µM; EC50 ([13]; Severe acute respiratory syndrome coronavirus 2, Vero C1008, MOI 0.04, * measurement from 50 µM): 31 ± 7.9 µM; IC50 ([14]; read-out: Exopeptidase Cathepsin B IC50): 21.3 ± 1.2 µM; EC50 [15, 25]: 14 ± 2.2 µM; IC50 [16, 26]: 76 ± 1.74 µM
4 | teicoplanin [Compound 3, reference compound] | 0.5 µg/mL |  |  |  |  |  | 2 µg/mL |  |  | > 100 µM |  |  |  | MIC ([2]; Enterococcus faecalis 15376 VanA): 256 µg/mL; EC50 ([9]; Vero E6 cells, MOI 0.01, 48 h, ddPCR of supernatant): 5.6 ± 1.3 µM; MIC ([3]; Staphylococcus epidermidis mecA): 16 µg/mL; 3CLPro inhibition ([11]; at 200 μM): 13% at 200 μM; MIC ([4]; Staphylococcus epidermidis ATCC 35984 biofilm, 24 h): 2 µg/mL; MIC ([5]; Staphylococcus aureus MSSA ATCC 29213, 24 h): 0.5 µg/mL; EC50 ([13]; MOI 0.04, three days, dilutions from 100 µM): 18 ± 5.4 µM; IC50 [18]: 3.76 µM; MIC ([6]; Enterococcus faecalis ATCC 51299 VanB, 24 h): 4 µg/mL; Exopeptidase Cathepsin B relative inhibition ([14]; at 50 μM): 0.45% at 50 μM; EC50 [15]: 15.7 µM and 16 µM; IC50 [19]: 1.66 µM; Cathepsin L relative inhibition ([16]; at 50 μM): 5.07% at 50 μM; Cathepsin L relative inhibition ([16]; at 50 μM; listed as teicoplanin): 5%; MIC ([8]; Staphylococcus aureus MRSA ATCC 33591, 24 h): 0.5 µg/mL
5 | COC(=O)/C=C/C(C)=C\C=C\C(C)=C\C=C\C=C(C)\C=C\C=C(C)\C=C\C(=O)N[C@H]1C(=O)N[C@@H]2Cc3ccc(c(Cl)c3)Oc3cc4cc(c3O)Oc3ccc(cc3Cl)[C@@H](O[C@@H]3O[C@H](CO)[C@@H](O)[C@H](O)[C@H]3NC(C)=O)[C@@H]3NC(=O)[C@H](NC(=O)[C@@H]4NC(=O)[C@@H](NC2=O)c2cc(O)cc(c2)Oc2cc1ccc2O)c1ccc(O)c(c1)-c1c(O)cc(O)cc1[C@@H](C(=O)O)NC3=O [Compound 5a] | 32 µg/mL (≈ 18 µM) | 16 µg/mL (≈ 9 µM) | 16 µg/mL (≈ 9 µM) | 0.5 µg/mL (≈ 0.281 µM) | 16 µg/mL (≈ 9 µM) | 16 µg/mL (≈ 9 µM) | 16 µg/mL (≈ 9 µM) | 0.5 µg/mL (≈ 0.281 µM) | 13.9 ± 1.73 µM | > 100 µM | >17 | 47.9 ± 1.07 µM | 42.4 ± 1.86 µM | 
6 | COC(=O)/C(C)=C/C=C/C(C)=C/C=C/C=C(C)/C=C/C=C(\C)C(=O)N[C@H]1C(=O)N[C@@H]2Cc3ccc(c(Cl)c3)Oc3cc4cc(c3O)Oc3ccc(cc3Cl)[C@@H](O[C@@H]3O[C@H](CO)[C@@H](O)[C@H](O)[C@H]3NC(C)=O)[C@@H]3NC(=O)[C@H](NC(=O)[C@@H]4NC(=O)[C@@H](NC2=O)c2cc(O)cc(c2)Oc2cc1ccc2O)c1ccc(O)c(c1)-c1c(O)cc(O)cc1[C@@H](C(=O)O)NC3=O [Compound 5b] | 16 µg/mL (≈ 9.27 µM) | 8 µg/mL (≈ 4.63 µM) | 2 µg/mL (≈ 1.16 µM) | 0.5 µg/mL (≈ 0.29 µM) | 8 µg/mL (≈ 4.63 µM) | 8 µg/mL (≈ 4.63 µM) | 4 µg/mL (≈ 2.32 µM) | 2 µg/mL (≈ 1.16 µM) |  | > 100 µM | >19.2 | 99.5 ± 1.16 µM | 103 ± 1.12 µM | 
7 | CC(/C=C/C=C(C)/C=C/C(=O)O)=C\C=C\C=C(C)\C=C\C=C(C)\C=C\C(=O)O (stereo in doubt) [Compound 1d, norbixin] |  |  |  |  |  |  |  |  | 36.1 ± 11.7 µM | > 100 µM |  |  |  | SARS-CoV-2 RNA Reduction, activity at 50 µM ([9]; Vero E6 cells): completely inactive; SARS-CoV-2 RNA Reduction, activity at 50 µM ([9]; Vero E6 cells, listed as 1d (norbixin)): not active at 50 µM
8 | COC(=O)/C(C)=C/C=C/C(C)=C/C=C/C=C(C)/C=C/C=C(\C)C(=O)O [Compound 1b, crocetin monomethyl ester] |  |  |  |  |  |  |  |  |  |  |  |  |  | SARS-CoV-2 RNA Reduction, activity at 50 µM ([9]; Vero E6 cells): did not show antiviral activity; also recorded: not active at 50 µM; melting point: 204 to 205 °C; inhibition at 100 µM [11]: 24%
9 | CC(=O)NC1C(OC2c3ccc(c(Cl)c3)Oc3cc4cc(c3O)Oc3ccc(cc3Cl)CC3NC(=O)C(NC(=O)C(C)=CC=CC(C)=CC=CC=C(C)C=CC=C(C)C=CC5=C(C)CCCC5(C)C)c5ccc(O)c(c5)Oc5cc(O)cc(c5)C(NC3=O)C(=O)NC4C(=O)NC3C(=O)NC2C(=O)NC(C(=O)O)c2cc(O)cc(O)c2-c2cc3ccc2O)OC(CO)C(O)C1O (stereo not shown) [Compound 5c] | 16 µg/mL (≈ 8.81 µM) | 8 µg/mL (≈ 4.4 µM) | 0.5 µg/mL (≈ 0.275 µM) | 0.5 µg/mL (≈ 0.275 µM) | 8 µg/mL (≈ 4.4 µM) | 8 µg/mL (≈ 4.4 µM) | 4 µg/mL (≈ 2.2 µM) | 1 µg/mL (≈ 0.55 µM) | 34.5 ± 12.5 µM | > 100 µM | >22.7 | 56.5 ± 1.06 µM | 47.1 ± 1.05 µM | 
10 | CC(=O)N[C@H]1[C@H](O[C@@H]2c3ccc(c(Cl)c3)Oc3cc4cc(c3O)Oc3ccc(cc3Cl)C[C@H]3NC(=O)[C@H](N)c5ccc(O)c(c5)Oc5cc(O)cc(c5)[C@H](NC3=O)C(=O)N[C@H]4C(=O)N[C@H]3C(=O)N[C@@H]2C(=O)N[C@H](C(=O)O)c2cc(O)cc(O)c2-c2cc3ccc2O)O[C@H](CO)[C@@H](O)[C@@H]1O [Compound 2, Teicoplanin pseudoaglycone] |  |  |  |  |  |  |  |  |  |  |  |  |  | inhibition at 200 µM ([11]; at 200 μM): 34%; inhibition at 50 µM ([14]; read-out: Exopeptidase Cathepsin B relative inhibition): 7.8%; inhibition at 50 µM ([16]; read-out: Cathepsin L relative inhibition): 0.04%
